These results are taken from the supplement of paper PMC8671470.

What all share (assay): cell viability (% survival relative to DMSO control, bortezomib = 0%); higher = less cytotoxic
What all share (conditions): 72 h

One test has as its system HL-60. In a few lines:
(§1)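 Fifteen myeloid leukaemia cell lines (10 AML, 5 CML) were seeded at a density titrated to the linear growth range into 384-well plates pre-printed with compounds at 1, 10, 100, 1000 or 10000 nM in duplicate. Plates were incubated for 72 h at 37 °C with 5% CO2. Viability was then read by CellTiter-Glo luminescence. Each value is percent survival averaged over the duplicates, with vehicle set to 100% and a 10 µM positive control to 0%.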

The test system of a further test is K-562. In a few lines:
as §1

For a further test, the system named is ML-2. The gist of the method:
as §1

In the next test the test system is BV-173. In a few lines: as §1

Take `[N-]=[N+]=CC(=O)CC[C@H](N)C(=O)O` [6-Diazo-5-oxo-L-norleucine]: the cell viability with HL-60 (1 nM) came to 64.7%; in the test with HL-60 (10 nM) it was 83.2%; with HL-60 (100 nM), 135%; in the test with HL-60 (1000 nM), 97.5%; with HL-60 (10000 nM), 106%; in the test on K-562 (1 nM), 70.8%. Also, the cell viability stood at 99.6% in the test with K-562 (10 nM); 99.5% with K-562 (100 nM); 104% in the test on K-562 (1000 nM); 92.5% with K-562 (10000 nM); 95.1% in the test with ML-2 (1 nM); 95.3% in the test with ML-2 (10 nM). In addition, the cell viability in the test with ML-2 (100 nM) worked out at 98.3%; with ML-2 (1000 nM), 116%; with ML-2 (10000 nM) it was 110%; in the test with BV-173 (1 nM), 94.8%; with BV-173 (10 nM), 89.6%; in the test with BV-173 (100 nM) it was 107%. For the same compound, the cell viability in the test on BV-173 (1000 nM) was determined as 93.4%; in the test with BV-173 (10000 nM), 96.5%.
On to `CCOC(=O)N1c2ccc(C(F)(F)F)cc2[C@@H](N(Cc2cc(C(F)(F)F)cc(C(F)(F)F)c2)C(=O)OC)C[C@H]1CC` [Torcetrapib], for which the cell viability with HL-60 (1 nM) was found to be 92.7%; in the test on HL-60 (10 nM), 109%; with HL-60 (1000 nM), 107%; in the test on HL-60 (10000 nM), 91%; in the test with K-562 (1 nM) it was 103%; in the test on K-562 (10 nM), 109%. Moreover, the cell viability in the test on K-562 (100 nM) came out at 121%; in the test on K-562 (1000 nM), 98.6%; in the test with K-562 (10000 nM) it was 94.4%; in the test with ML-2 (1 nM), 89.8%; with ML-2 (10 nM), 97%; in the test on ML-2 (100 nM) it was 118%. The cell viability turned out to be 80.9% in the test with ML-2 (1000 nM); 57.8% in the test with ML-2 (10000 nM); 82.9% in the test with BV-173 (1 nM); 94% in the test on BV-173 (10 nM); 67% in the test on BV-173 (100 nM); 49.3% with BV-173 (1000 nM). The cell viability in the test on BV-173 (10000 nM) is 26.9%.
Take `CC(C)C[C@H](NC(=O)[C@@H](O)[C@H](N)Cc1ccccc1)C(=O)O` [Ubenimex]: the cell viability turned out to be 98.3% in the test on HL-60 (1 nM); 124% in the test on HL-60 (10 nM); 98.7% in the test on HL-60 (100 nM); 77.9% in the test with HL-60 (1000 nM); 97% in the test on HL-60 (10000 nM); 111% in the test with K-562 (1 nM). In addition, the cell viability was 102% with K-562 (10 nM); 113% in the test on K-562 (100 nM); 89.6% in the test with K-562 (1000 nM); 102% in the test with K-562 (10000 nM); 108% with ML-2 (1 nM); 109% with ML-2 (10 nM). Further, the cell viability in the test on ML-2 (100 nM) is 101%; in the test on ML-2 (1000 nM), 87.3%; in the test on ML-2 (10000 nM), 99.8%; in the test with BV-173 (1 nM), 97.5%; with BV-173 (10 nM) it was 110%; in the test with BV-173 (100 nM), 90.8%. For the same compound, the values for the cell viability in the test on BV-173 (1000 nM) and with BV-173 (10000 nM) were 78.9% and 99.9%, respectively.
Take `CC(Cc1ccc(O)c(O)c1)C(C)Cc1ccc(O)c(O)c1` (centres undefined) [Masoprocol]: the cell viability with HL-60 (1 nM) was 89%; in the test on HL-60 (10 nM), 81.2%; with HL-60 (100 nM), 118%; with HL-60 (1000 nM), 90%; in the test with HL-60 (10000 nM), 6.31%; with K-562 (1 nM), 87.2%. In addition, the cell viability amounted to 109% in the test on K-562 (10 nM); 105% in the test on K-562 (100 nM); 95.8% in the test with K-562 (1000 nM); 76.7% in the test on K-562 (10000 nM); 99.2% in the test on ML-2 (1 nM); 103% in the test on ML-2 (10 nM). For the same compound, the cell viability in the test on ML-2 (100 nM) is 96.1%; in the test with ML-2 (1000 nM), 101%; in the test with ML-2 (10000 nM) it was 3.98%; with BV-173 (1 nM) it was 104%; with BV-173 (10 nM) it was 88.1%; in the test with BV-173 (100 nM), 101%. Besides, the cell viability was 104% in the test on BV-173 (1000 nM) and 5.25% in the test on BV-173 (10000 nM).
With `O=C1Nc2ccccc2/C1=C\NCCc1ccc(O)c(O)c1` [AC1NZZMF], the cell viability in the test with HL-60 (1 nM) amounted to 76.8%; with HL-60 (10 nM) it was 102%; with HL-60 (100 nM), 82.5%; in the test with HL-60 (1000 nM), 96.8%; in the test on HL-60 (10000 nM) it was 86.8%; in the test on K-562 (1 nM) it was 90.1%. In addition, the cell viability amounted to 112% in the test on K-562 (10 nM); 99.7% in the test on K-562 (100 nM); 122% in the test with K-562 (1000 nM); 96.6% in the test on K-562 (10000 nM); 113% in the test on ML-2 (1 nM); 111% in the test with ML-2 (10 nM). The cell viability with ML-2 (100 nM) turned out to be 101%; in the test on ML-2 (1000 nM), 95.4%; with ML-2 (10000 nM), 75.9%; with BV-173 (1 nM) it was 99.7%; with BV-173 (10 nM), 103%; in the test with BV-173 (100 nM) it was 104%. Also, the cell viability in the test on BV-173 (1000 nM) turned out to be 94.1%; in the test with BV-173 (10000 nM), 60.9%.
Turning to `Clc1ccc(COC(Cn2ccnc2)c2ccc(Cl)cc2Cl)cc1` (centres undefined) [Econazole], the cell viability in the test with HL-60 (1 nM) was 120%; in the test on HL-60 (10 nM), 80.3%; in the test with HL-60 (100 nM) it was 109%; with HL-60 (1000 nM), 81.2%; with HL-60 (10000 nM), 41.5%; with K-562 (1 nM), 97.4%. For the same compound, the cell viability in the test on K-562 (10 nM) was determined as 89.8%; with K-562 (100 nM), 93.1%; with K-562 (1000 nM) it was 69%; in the test with K-562 (10000 nM), 38.1%; in the test with ML-2 (1 nM) it was 110%; in the test with ML-2 (10 nM) it was 88.3%. Moreover, the cell viability was determined as 112% in the test with ML-2 (100 nM); 89.8% in the test on ML-2 (1000 nM); 58.1% in the test with ML-2 (10000 nM); 114% in the test on BV-173 (1 nM); 92.6% with BV-173 (10 nM); 84.2% with BV-173 (100 nM). In addition, the cell viability in the test on BV-173 (1000 nM) was 70.1%; in the test with BV-173 (10000 nM), 43.1%.
Take `O=C(O)c1nn(Cc2ccc(Cl)cc2Cl)c2ccccc12` [Lonidamine]: the cell viability came to 100% in the test with HL-60 (1 nM); 119% in the test with HL-60 (10 nM); 90.2% in the test on HL-60 (100 nM); 82.2% with HL-60 (1000 nM); 105% in the test with HL-60 (10000 nM); 94.2% in the test on K-562 (1 nM). The cell viability turned out to be 104% with K-562 (10 nM); 118% in the test on K-562 (100 nM); 98.4% with K-562 (1000 nM); 82.6% in the test on K-562 (10000 nM); 102% in the test with ML-2 (1 nM); 106% in the test on ML-2 (10 nM). Besides, the cell viability with ML-2 (100 nM) is 101%; in the test on ML-2 (1000 nM) it was 93.7%; with ML-2 (10000 nM), 95.1%; with BV-173 (1 nM) it was 104%; in the test on BV-173 (10 nM) it was 89.4%; with BV-173 (100 nM), 108%. Moreover, the figures for the cell viability in the test on BV-173 (1000 nM) and with BV-173 (10000 nM) were 90.1% and 94.5%, respectively.
